Measured values: ChEMBL document CHEMBL1921755, “The synthesis of xanthones, xanthenediones, and spirobenzofurans: their antibacterial and antifungal activity” (2011)
Values after ≈ are worked out from the molar mass of the structure shown.

Experiments:
Format in all cases: functional
Escherichia coli = test: Antibacterial activity against Escherichia coli ATCC 8739
Moraxella catarrhalis = test: Antibacterial activity against Moraxella catarrhalis […]
Cryptococcus neoformans = test: Antifungal activity against Cryptococcus neoformans ATCC 90112
Staphylococcus aureus = test: Antibacterial activity against Staphylococcus aureus ATCC 2587
Candida albicans [1] = test: Antifungal activity against Candida albicans ATCC 10231
Bacillus cereus = test: Antibacterial activity against Bacillus cereus ATCC 11778
Bacillus subtilis = test: Antibacterial activity against Bacillus subtilis
Candida albicans [2] = test: Antifungal activity against Candida albicans
Nakaseomyces glabratus = test: Antifungal activity against Candida glabrata

Compound	MIC (Escherichia coli)	MIC (Moraxella catarrhalis)	MIC (Cryptococcus neoformans)	MIC (Staphylococcus aureus)	MIC (Candida albicans [1])	MIC (Bacillus cereus)	MIC (Bacillus subtilis)	MIC (Candida albicans [2])	MIC (Nakaseomyces glabratus)
COc1cc2oc3ccccc3c(=O)c2cc1OC	125 µg/mL (≈ 488 µM)	125 µg/mL (≈ 488 µM)	31.3 µg/mL (≈ 122 µM)	62.5 µg/mL (≈ 244 µM)	31.3 µg/mL (≈ 122 µM)	46.9 µg/mL (≈ 183 µM)			
COc1ccc2oc3ccccc3c(=O)c2c1	312 µg/mL (≈ 1380 µM)	625 µg/mL (≈ 2760 µM)	78.1 µg/mL (≈ 345 µM)	156 µg/mL (≈ 690 µM)	156 µg/mL (≈ 690 µM)	312 µg/mL (≈ 1380 µM)			
COC12C=CC(=O)C=C1C(=O)c1ccccc1O2 (centres undefined)	125 µg/mL (≈ 516 µM)	125 µg/mL (≈ 516 µM)	3.6 µg/mL (≈ 14.9 µM)	93.7 µg/mL (≈ 387 µM)	3.6 µg/mL (≈ 14.9 µM)	31.3 µg/mL (≈ 129 µM)			
COc1c(O)ccc2oc3ccccc3c(=O)c12	125 µg/mL (≈ 516 µM)	125 µg/mL (≈ 516 µM)	15.6 µg/mL (≈ 64.4 µM)	125 µg/mL (≈ 516 µM)	31.3 µg/mL (≈ 129 µM)	31.3 µg/mL (≈ 129 µM)			
COC12C=CC(=O)C=C1C(=O)c1cc(Br)ccc1O2 (centres undefined)	62.5 µg/mL (≈ 195 µM)	125 µg/mL (≈ 389 µM)	15.6 µg/mL (≈ 48.6 µM)	62.5 µg/mL (≈ 195 µM)	7.8 µg/mL (≈ 24.3 µM)	31.3 µg/mL (≈ 97.5 µM)			
O=c1c2cc(O)ccc2oc2ccc(Br)cc12	125 µg/mL (≈ 429 µM)	> 250 µg/mL	11.7 µg/mL (≈ 40.2 µM)	250 µg/mL (≈ 859 µM)	31.3 µg/mL (≈ 108 µM)	31.3 µg/mL (≈ 108 µM)			
COC1=CC2(OC)Oc3ccc(Br)cc3C(=O)C2=CC1=O (centres undefined)	188 µg/mL (≈ 534 µM)	125 µg/mL (≈ 356 µM)	15.6 µg/mL (≈ 44.4 µM)	62.5 µg/mL (≈ 178 µM)	31.3 µg/mL (≈ 89.1 µM)	31.3 µg/mL (≈ 89.1 µM)			
COC1=CC2(Oc3ccc(Br)cc3C2=O)C(OC)=CC1=O (centres undefined)	62.5 µg/mL (≈ 178 µM)	125 µg/mL (≈ 356 µM)	15.6 µg/mL (≈ 44.4 µM)	62.5 µg/mL (≈ 178 µM)	31.3 µg/mL (≈ 89.1 µM)	31.3 µg/mL (≈ 89.1 µM)			
COc1cc2oc3ccc(Br)cc3c(=O)c2cc1O	125 µg/mL (≈ 389 µM)	125 µg/mL (≈ 389 µM)	15.6 µg/mL (≈ 48.6 µM)	62.5 µg/mL (≈ 195 µM)	31.3 µg/mL (≈ 97.5 µM)	31.3 µg/mL (≈ 97.5 µM)			
COC1=CC2(Oc3ccc(-c4ccccc4)cc3C2=O)C(OC)=CC1=O (centres undefined)	125 µg/mL (≈ 359 µM)	> 250 µg/mL	23.4 µg/mL (≈ 67.2 µM)	62.5 µg/mL (≈ 179 µM)	31.3 µg/mL (≈ 89.9 µM)	46.9 µg/mL (≈ 135 µM)			
COC1=CC2(Oc3ccc(-c4ccccc4C=O)cc3C2=O)C(OC)=CC1=O (centres undefined)	62.5 µg/mL (≈ 166 µM)	125 µg/mL (≈ 332 µM)	15.6 µg/mL (≈ 41.4 µM)	15.6 µg/mL (≈ 41.4 µM)	31.3 µg/mL (≈ 83.2 µM)	15.6 µg/mL (≈ 41.4 µM)			
COC12Oc3ccccc3C(=O)C1=CC(=O)c1ccccc12 (centres undefined)	156 µg/mL (≈ 534 µM)	78.1 µg/mL (≈ 267 µM)	19.5 µg/mL (≈ 66.7 µM)	78.1 µg/mL (≈ 267 µM)	78.1 µg/mL (≈ 267 µM)	19.5 µg/mL (≈ 66.7 µM)			
COC12Oc3ccc(Cl)cc3C(=O)C1=CC(=O)c1ccccc12 (centres undefined)	469 µg/mL (≈ 1430 µM)	312 µg/mL (≈ 956 µM)	29.2 µg/mL (≈ 89.4 µM)	19.5 µg/mL (≈ 59.7 µM)	469 µg/mL (≈ 1430 µM)	78.1 µg/mL (≈ 239 µM)			
COC1=CC2(Oc3ccc(Cl)cc3C2=O)C(OC)=CC1=O (centres undefined)	312 µg/mL (≈ 1020 µM)	312 µg/mL (≈ 1020 µM)	39 µg/mL (≈ 127 µM)	156 µg/mL (≈ 509 µM)	156 µg/mL (≈ 509 µM)	156 µg/mL (≈ 509 µM)			
COc1cc2oc3ccc(Cl)cc3c(=O)c2cc1OC	312 µg/mL (≈ 1070 µM)	625 µg/mL (≈ 2150 µM)	78.1 µg/mL (≈ 269 µM)	117 µg/mL (≈ 403 µM)	156 µg/mL (≈ 537 µM)	312 µg/mL (≈ 1070 µM)			
COC1=CC2(OC)Oc3ccc(Cl)cc3C(=O)C2=CC1=O (centres undefined)	156 µg/mL (≈ 509 µM)	156 µg/mL (≈ 509 µM)	15.6 µg/mL (≈ 50.9 µM)	39 µg/mL (≈ 127 µM)	20.8 µg/mL (≈ 67.8 µM)	39 µg/mL (≈ 127 µM)			
COc1ccc2oc3ccc(Cl)cc3c(=O)c2c1	625 µg/mL (≈ 2400 µM)	1250 µg/mL (≈ 4800 µM)	156 µg/mL (≈ 599 µM)	234 µg/mL (≈ 899 µM)	234 µg/mL (≈ 899 µM)	625 µg/mL (≈ 2400 µM)			
COC12C=CC(=O)C=C1C(=O)c1cc(Cl)ccc1O2 (centres undefined)	312 µg/mL (≈ 1130 µM)	156 µg/mL (≈ 565 µM)	7.8 µg/mL (≈ 28.2 µM)	156 µg/mL (≈ 565 µM)	156 µg/mL (≈ 565 µM)	156 µg/mL (≈ 565 µM)			
CC1(C)C=Cc2c(cc3oc4c(O)cccc4c(=O)c3c2O)O1							4.6 µM (≈ 1.43 µg/mL)		
O=C(O)c1cn(C2CC2)c2cc(N3CCNCC3)c(F)cc2c1=O [CIPROFLOXACIN]		1.25 µg/mL (≈ 3.77 µM)		1.25 µg/mL (≈ 3.77 µM)		0.08 µg/mL (≈ 0.241 µM)			
COC1=CC(=O)C[C@@H](C)[C@]12Oc1c(Cl)c(OC)cc(OC)c1C2=O [GRISEOFULVIN]								20 µg/mL (≈ 56.7 µM)	
CC(C)=CCc1cccc2c(=O)c3c(O)cc4c(c3oc12)C=CC(C)(C)O4 [LAURENTIXANTHONE A]									2.44 µM (≈ 0.884 µg/mL)
